The structures appear in SMILES notation.

For orientation: IC50 means the concentration that gives 50% inhibition.

The target of this test is recombinant MPTPB enzyme (Mycobacterium tuberculosis, UniProt I6WXK4). In words: MPTPB enzymatic assay (DiFMUP substrate, fluorescence). The conditions noted are these: recombinant MPTPB 50 ng/ml, pH 6.6, 45 minutes at room temperature. The class given is biochemical. The procedure: The compounds of the inventions have been tested in the following enzymatic assay:
Five μl of diluted compound or vehicle (100% DMSO) was distributed to a 96 well plate. 55 μl of DiFMUP 72.7 μM diluted in MPTPB buffer (20 mM Bis Tris HCl pH 6.6, 0.1% Brij 35, 1 mM DL-Dithiothreitol) was added, followed by 40 μl of recombinant MPTPB enzyme (50 ng/ml) diluted in MPTPB buffer in order to start the reaction. After 45 minutes incubation at room temperature fluorescence intensity was measured on a Perkin-Elmer Fusion spectrofluorimeter (excitation at 355 nm, emission at 460 nm, for 0.2 s).
Examples of inhibitory activities for compounds of the invention are set out in Table I below.

recombinant MPTPB enzyme, sequence (I6WXK4 whole entry, looked up, the tested form may be a part): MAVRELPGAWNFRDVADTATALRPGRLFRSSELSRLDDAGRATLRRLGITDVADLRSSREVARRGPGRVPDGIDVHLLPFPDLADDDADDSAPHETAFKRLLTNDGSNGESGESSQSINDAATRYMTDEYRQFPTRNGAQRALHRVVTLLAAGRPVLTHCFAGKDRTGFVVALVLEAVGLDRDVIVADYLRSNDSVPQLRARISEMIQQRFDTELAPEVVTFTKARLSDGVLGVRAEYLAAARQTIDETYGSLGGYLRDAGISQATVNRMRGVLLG

Turning to `O=C(O)C(=O)N(Cc1cccc(Cl)c1)Cc1ccc(S(=O)(=O)NCCC(c2ccccc2)c2ccccc2)s1` [Example 14, {(3-chlorobenzyl) [(5-{[(3,3-diphenylpropyl)amino]sulfonyl}-2-thienyl)-methyl]amino}(oxo)acetic acid], the 50% inhibitory concentration (IC50) amounted to 0.79 µM.

Consider `CC(CNS(=O)(=O)c1ccc(CN(Cc2cccc(Cl)c2)C(=O)C(=O)O)s1)c1ccc(Cl)cc1` (stereo not drawn) [Example 24, ((3-chlorobenzyl){[5-({[2-(4-chlorophenyl)propyl]amino}sulfonyl)-2-thienyl]methyl}amino)(oxo)acetic acid], for which the IC50 was 0.77 µM.

`CCCCCCCCCCCCNS(=O)(=O)c1ccc(CN(Cc2ccccc2F)C(=O)C(=O)O)s1` [Example 6, [({5-[(dodecylamino)sulfonyl]-2-thienyl}methyl)(2-fluorobenzyl)amino]-(oxo)acetic acid]: the IC50 is 0.74 µM.

The record behind these values is patent US20090018169A1, “Sulfonamide Derivatives for the Treatment of Bacterial Infections” (Laboratoires Serono SA, priority 2006, published 2009).
